The source of these data is US20080306056A1, “PYRAZOLE-DERIVATIVES AS FACTOR Xa INHIBITORS” (SANOFI-AVENTIS DEUTSCHLAND GMBH, priority 2002, published 2008).

This experiment deals with T1, human factor Xa (Homo sapiens, UniProt P00742).
T1 construct: 25 μl human factor Xa (Enzyme Research Laboratories, Inc; South Bend, Ind.); purchased Enzyme Research Laboratories, Inc; South Bend, Ind
T1 sequence (P00742 235-488 limits assumed): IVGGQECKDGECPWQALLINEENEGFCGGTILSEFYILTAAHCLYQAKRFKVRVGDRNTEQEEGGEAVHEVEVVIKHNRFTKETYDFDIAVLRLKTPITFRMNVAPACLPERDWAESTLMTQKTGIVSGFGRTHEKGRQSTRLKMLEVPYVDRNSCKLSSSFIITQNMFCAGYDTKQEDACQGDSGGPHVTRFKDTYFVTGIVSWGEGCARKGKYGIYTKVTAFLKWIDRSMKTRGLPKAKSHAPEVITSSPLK
T1 sequence (P00742 41-179 partner limits assumed): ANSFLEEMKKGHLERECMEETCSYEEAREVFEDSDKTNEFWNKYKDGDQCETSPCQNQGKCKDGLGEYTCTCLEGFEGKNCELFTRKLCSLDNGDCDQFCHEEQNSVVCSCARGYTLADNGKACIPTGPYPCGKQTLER
Kind of experiment: Factor Xa assay (chromogenic, purified enzyme). Type of experiment: biochemical. As to conditions: inhibition constant for factor Xa; chromogenic substrate S-2765 140 μM, enzyme 0.5 nM, 25° C., pH 7.8; Ki=IC50/{1+(substrate concentration/Km)}; read-out: Ki(FXa). The source says:
The ability of the compound of formulae I, Ib and Ic to inhibit factor Xa or factor VIIa or other enzymes like thrombin, plasmin, or trypsin can be assessed by determining the concentration of the compound of the formulae I, Ib and Ic that inhibits enzyme activity by 50%, i.e. the IC50 value, which was related to the inhibition constant Ki. Purified enzymes were used in chromogenic assays. The concentration of inhibitor that causes a 50% decrease in the rate of substrate hydrolysis was determined by linear regression after plotting the relative rates of hydrolysis (compared to the uninhibited control) versus the log of the concentration of the compound of formulae I, Ib and Ic. For calculating the inhibition constant Ki, the IC50 value was corrected for competition with substrate using the formula wherein Km is the Michaelis-Menten constant (Chen and Prusoff, Biochem.
Ki=IC50/{1+(substrate concentration/Km)}
Pharmacol. 22 (1973) 3099-3108; I. H. Segal, Enzyme Kinetics, 1975, John Wiley & Sons, New York, 100-125; which were incorporated herein by reference).
The IC50 was determined by combining in appropriate wells of a Costar half-area microtiter plate 25 μl human factor Xa (Enzyme Research Laboratories, Inc.; South Bend, Ind.) in TBS-PEG; 40 μl 10% (v/v) DMSO in TBS-PEG (uninhibited control) or various concentrations of the compound to be tested diluted in 10% (v/v) DMSO in TBS-PEG; and substrate S-2765 (N(α)-benzyloxycarbonyl-D-Arg-Gly-L-Arg-p-nitroanilide; Kabi Pharmacia, Inc.; Franklin, Ohio) in TBS-PEG.
The assay was performed by pre-incubating the compound of formulae I, Ib and Ic plus enzyme for 10 min. Then the assay was initiated by adding substrate to obtain a final volume of 100 μl. The initial velocity of chromogenic substrate hydrolysis was measured by the change in absorbance at 405 nm using a Bio-tek Instruments kinetic plate reader (Ceres UV900HDi) at 25° C. during the linear portion of the time course (usually 1.5 min after addition of substrate). The enzyme concentration was 0.5 nM and substrate concentration was 140 μM.
The inhibitory activity towards factor VIIa/tissue factor activity was determined using a chromogenic assay essentially as described previously (J. A. Ostrem et al., Biochemistry 37 (1998) 1053-1059 which was incorporated herein by reference). Kinetic assays were conducted at 25° C. in half-area microtiter plates (Costar Corp., Cambridge, Mass.) using a kinetic plate reader (Molecular Devices Spectramax 250). A typical assay consisted of 25 μl human factor VIIa and TF (5 nM and 10 nM, respective final concentration) combined with 40 μl of inhibitor dilutions in 10% DMSO/TBS-PEG buffer (50 mM Tris, 15 mM NaCl, 5 mM CaCl2, 0.05% PEG 8000, pH 8.15). Following a 15 minute preincubation period, the assay was initiated by the addition of 35 μl of the chromogenic substrate S-2288 (D-Ile-Pro-Arg-p-nitroanilide, Pharmacia Hepar Inc., 500 μM final concentration).
With `CC(C)N1CCC(NC(=O)c2cc(C(=O)NC3CCC3)nn2Cc2cc(-c3ccc(Cl)s3)on2)CC1` [Example 46, 1-[5-(5-Chloro-thiophen-2-yl)-isoxazol-3-ylmethyl]-1H-pyrazole-3,5-dicarboxylic acid 3-cyclobutylamide 5-[(1-isopropyl-piperidin-4-yl)-amide]], the Ki – broadly, a dissociation constant, usually derived from enzyme kinetics or from competition with a known ligand – turned out to be 106 nM. In the case of `COCCNC(=O)c1cc(C(=O)NC2CCN(C(C)C)CC2)n(Cc2cc(-c3ccc(Cl)s3)on2)n1` [Example 47, 1-[5-(5-Chloro-thiophen-2-yl)-isoxazol-3-ylmethyl]-1H-pyrazole-3,5-dicarboxylic acid 5-[(1-isopropyl-piperidin-4-yl)-amide] 3-[(2-methoxy-ethyl)-amide]] it was 86 nM.

With `CC(C)N1CCC(NC(=O)c2cc(C(=O)N3CCCC3)nn2Cc2cc(-c3ccc(Cl)s3)on2)CC1` [Example 48, 2-[5-(5-Chloro-thiophen-2-yl)-isoxazol-3-ylmethyl]-5-(pyrrolidine-1-carbonyl)-2H-pyrazole-3-carboxylic acid (1-isopropyl-piperidin-4-yl)-amide], the Ki was determined as 183 nM. With `CC(C)N1CCC(NC(=O)c2cc(C(=O)NC#N)nn2Cc2cc(-c3ccc(Cl)s3)on2)CC1` [Example 49, 2-[5-(5-Chloro-thiophen-2-yl)-isoxazol-3-ylmethyl]-5-(cyanamide-1-carbonyl)-2H-pyrazole-3-carboxylic acid (1-isopropyl-piperidin-4-yl)-amide], the Ki came out at 40 nM. As to `COC(=O)c1cc(C(=O)NC2CCN(C(C)C)CC2)n(CC(=O)Nc2ccc(Cl)cn2)n1` [Example 50, 1-[(5-Chloro-pyridin-2-ylcarbamoyl)-methyl]-5-(1-isopropyl-piperidin-4-ylcarbamoyl)-1H-pyrazole-3-carboxylic acid methyl ester], the Ki was found to be 10 nM. In the case of `CC(C)N1CCC(NC(=O)c2cc(C(=O)NC3CCC3)nn2CC(=O)Nc2ccc(Cl)cn2)CC1` [Example 52, 1-[(5-Chloro-pyridin-2-ylcarbamoyl)-methyl]-1H-pyrazole-3,5-dicarboxylic acid 3-cyclobutylamide 5-[(1-isopropyl-piperidin-4-yl)-amide]] it was 16 nM; in that of `CC(C)N1CCC(NC(=O)c2c(C#N)cnn2Cc2cc(-c3ccc(Cl)s3)on2)CC1` [Example 55, 2-[5-(5-Chloro-thiophen-2-yl)-isoxazol-3-ylmethyl]-4-cyano-2H-pyrazole-3-carboxylic acid (1-isopropyl-piperidin-4-yl)-amide], 99 nM.

For the compound `CC(C)N1CCC(NC(=O)c2nn(Cc3cc(-c4ccc(Cl)s4)on3)cc2C#N)CC1` [Example 56, 1-[5-(5-Chloro-thiophen-2-yl)-isoxazol-3-ylmethyl]-4-cyano-1H-pyrazole-3-carboxylic acid (1-isopropyl-piperidin-4-yl)-amide], the Ki came to 144 nM. As for `CC(C)N1CCC(NC(=O)c2c(C#N)cnn2CC(=O)Nc2ccc(Cl)cc2)CC1` [Example 57, 2-[(4-Chloro-phenylcarbamoyl)-methyl]-4-cyano-2H-pyrazole-3-carboxylic acid (1-isopropyl-piperidin-4-yl)-amide], the figure is 410 nM. As to `CC(C)N1CCC(NC(=O)c2cc(C(=O)NCCC(=O)O)nn2Cc2cc(-c3ccc(Cl)s3)on2)CC1` [Example 58, 3-{[1-[5-(5-Chloro-thiophen-2-yl)-isoxazol-3-ylmethyl]-5-(1-isopropyl-piperidin-4-ylcarbamoyl)-1H-pyrazole-3-carbonyl]-amino}-propionic acid], the Ki is 63 nM. In the case of `CONC(=O)c1cc(C(=O)NC2CCN(C(C)C)CC2)n(Cc2cc(-c3ccc(Cl)s3)on2)n1` [Example 59, 1-[5-(5-Chloro-thiophen-2-yl)-isoxazol-3-ylmethyl]-1H-pyrazole-3,5-dicarboxylic acid 5-[(1-isopropyl-piperidin-4-yl)-amide] 3-(methoxy-amide)] it was 94 nM. For `CC(C)N1CCC(NC(=O)c2cc(C(=O)NCC(N)=O)nn2Cc2cc(-c3ccc(Cl)s3)on2)CC1` [Example 60, 1-[5-(5-Chloro-thiophen-2-yl)-isoxazol-3-ylmethyl]-1H-pyrazole-3,5-dicarboxylic acid 3-carbamoylmethyl-amide 5-[(1-isopropyl-piperidin-4-yl)-amide]], the Ki was 56 nM. As for `CCOC(=O)CNC(=O)c1cc(C(=O)NC2CCN(C(C)C)CC2)n(Cc2cc(-c3ccc(Cl)s3)on2)n1` [Example 61, {[1-[5-(5-Chloro-thiophen-2-yl)-isoxazol-3-ylmethyl]-5-(1-isopropyl-piperidin-4-ylcarbamoyl)-1H-pyrazole-3-carbonyl]-amino}-acetic acid ethyl ester], the figure is 101 nM; as for `CC(C)N1CCC(NC(=O)c2cc(C(=O)NCCCO)nn2Cc2cc(-c3ccc(Cl)s3)on2)CC1` [Example 62, 1-[5-(5-Chloro-thiophen-2-yl)-isoxazol-3-ylmethyl]-1H-pyrazole-3,5-dicarboxylic acid 3-[(3-hydroxy-propyl)-amide] 5-[(1-isopropyl-piperidin-4-yl)-amide]], 80 nM. As for `CC(C)N1CCC(NC(=O)c2cc(C(=O)N3CC[C@H]3C(=O)O)nn2Cc2cc(-c3ccc(Cl)s3)on2)CC1` [Example 63, 1-[1-[5-(5-Chloro-thiophen-2-yl)-isoxazol-3-ylmethyl]-5-(1-isopropyl-piperidin-4-ylcarbamoyl)-1H-pyrazole-3-carbonyl]-(2S)-azetidine-2-carboxylic acid], the figure is 134 nM; as for `CC(C)N1CCC(NC(=O)c2cc(C(=O)N3CCC[C@H]3CO)nn2Cc2cc(-c3ccc(Cl)s3)on2)CC1` [Example 64, 2-[5-(5-Chloro-thiophen-2-yl)-isoxazol-3-ylmethyl]-5-(2S,2-hydroxymethyl-pyrrolidine-1-carbonyl)-2H-pyrazole-3-carboxylic acid (1-isopropyl-piperidin-4-yl)-amide], 90 nM. In the case of `CC(C)N1CCC(NC(=O)c2cc(C(=O)N3CCC[C@H]3C(=O)O)nn2Cc2cc(-c3ccc(Cl)s3)on2)CC1` [Example 65, 1-[1-[5-(5-Chloro-thiophen-2-yl)-isoxazol-3-ylmethyl]-5-(1-isopropyl-piperidin-4-ylcarbamoyl)-1H-pyrazole-3-carbonyl]-2S-pyrrolidine-2-carboxylic acid] it was 142 nM; in that of `COC[C@@H]1CCCN1C(=O)c1cc(C(=O)NC2CCN(C(C)C)CC2)n(Cc2cc(-c3ccc(Cl)s3)on2)n1` [Example 66, 2-[5-(5-Chloro-thiophen-2-yl)-isoxazol-3-ylmethyl]-5-(2S,2-methoxymethyl-pyrrolidine-1-carbonyl)-2H-pyrazole-3-carboxylic acid (1-isopropyl-piperidin-4-yl)-amide], 152 nM; in that of `COC[C@H]1CC[C@H](COC)N1C(=O)c1cc(C(=O)NC2CCN(C(C)C)CC2)n(Cc2cc(-c3ccc(Cl)s3)on2)n1` [Example 67, 5-(2R,5R,2,5-Bis-methoxymethyl-pyrrolidine-1-carbonyl)-2-[5-(5-chloro-thiophen-2-yl)-isoxazol-3-ylmethyl]-2H-pyrazole-3-carboxylic acid (1-isopropyl-piperidin-4-yl)-amide], 420 nM. For `CC(C)N1CCC(NC(=O)c2cc(C(=O)NC3=NCCO3)nn2Cc2cc(-c3ccc(Cl)s3)on2)CC1` [Example 68, 1-[5-(5-Chloro-thiophen-2-yl)-isoxazol-3-ylmethyl]-1H-pyrazole-3,5-dicarboxylic acid 3-[(4,5-dihydro-oxazol-2-yl)-amide] 5-[(1-isopropyl-piperidin-4-yl)-amide]], the Ki is 99 nM. In the case of `CCOC(=O)C1CCN(C(=O)c2cc(C(=O)NC3CCN(C(C)C)CC3)n(Cc3cc(-c4ccc(Cl)s4)on3)n2)CC1` [Example 69, 1-[1-[5-(5-Chloro-thiophen-2-yl)-isoxazol-3-ylmethyl]-5-(1-isopropyl-piperidin-4-ylcarbamoyl)-1H-pyrazole-3-carbonyl]-piperidine-4-carboxylic acid ethyl ester] it was 177 nM.
